Reference: US10532985B2, “Heterocycle and carbocycle derivatives having TRKA inhibitory activity” (Shionogi & Co., Ltd., priority 2014, dated 2020)

Legend:
human TrkA [1] = molecular target: T1, human TrkA (Homo sapiens, UniProt P04629); assay: Test Example 2: Human TrkA Inhibition Assay; assay type: biochemical; conditions: Test Example 2
T1 construct: purchased Lifetechnologies PV3144
In short: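 Mobility-shift kinase assay: 90 min reaction at room temperature, stopped with EDTA buffer; phosphorylated and non-phosphorylated fluorescent substrate measured, conversion ratio calculated. Inhibition % normalised between DMSO-only wells and no-TrkA wells.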

human TrkA [2] = molecular target: T1, human TrkA; assay: Test Example 2-2: Human TrkA Inhibition Assay; assay type: biochemical
Method: Seven point five μL per well of human TrkA (PV3144, Lifetechnologies, final concentration: 1 nmol/L) suspended in the assay buffer (100 mmol/L 4-(2-hydroxyethyl)-1-piperazineethanesulfonic acid (HEPES), 10 mmol/L magnesium chloride, 0.003 vol % Brij-35, 0.004 vol % Tween20 and 1 mmol/L dithiothreitol (DTT)) was applied in a 384 well plate and the plate was pre-incubated for 15 min at room temperature with 0.4 μL of each compound (final concentration: […]) dissolved in DMSO. Then, fluorescent substrate (FL-peptide 27, 760424, PerkinElmer, final concentration: 1.5 μmol/L) and ATP (final concentration […]) dissolved in the assay buffer was added in each well. After the incubation of 120 min at 37° C., fifteen μL of termination buffer (100 mmol/L HEPES, 40 mmol/L ethylenediaminetetraacetic acid (EDTA), 10 mmol/L magnesium chloride, 0.003 vol % Brij-35, 0.004 vol % Tween20, 1 mmol/L DTT and 0.16 vol % Coating Reagent 3) was added in each well to stop the enzyme reaction. Fluorescent intensities (FI) of phosphorylated and non-phosphorylated fluorescent substrates were measured by LabChip EZReader II (Caliper LifeSciences, Inc.), and conversion ratio (CR) was calculated by the following formula-1. The CR in the well applied with DMSO alone was used as a negative control and the CR in the well without applying TrkA was used as a positive control. The inhibitory effect of each compound on TrkA phosphorylation was calculated by the following formula-2. CR (%)=(FI of phosphorylated substrate/(FI of phosphorylated substrate+FI of non-phosphorylated substrate))×100 (Formula-1) Phosphorylation inhibition (%)=(1−(CR with compound treatment−CR of positive control)/(CR of negative control−CR of positive control))×100 (Formula-2) Inhibitory effect on TrkA phosphorylation (%)=(1−(CR in compound treated well−CR in positive control)/(CR in negative control−CR in positive control))×100.
The 50/o inhibitory concentration (IC50) was determined by the logistic regression using the inhibition data in 10 points at a range of 2 μmol/L to 0.1 nmol/L or 200 μmol/L to 10 nmol/L).

[3] = molecular target: T2, human ether-a-go-go related gene (hERG) channel (Homo sapiens, UniProt Q12809); assay: Test Example 3: hERG Test (whole cell patch clamp, IKr); assay type: cell-based; conditions: CHO cells expressing hERG
T2 construct: expressed in transfected cells; host or cells: CHO cells
T2 sequence (Q12809 whole entry): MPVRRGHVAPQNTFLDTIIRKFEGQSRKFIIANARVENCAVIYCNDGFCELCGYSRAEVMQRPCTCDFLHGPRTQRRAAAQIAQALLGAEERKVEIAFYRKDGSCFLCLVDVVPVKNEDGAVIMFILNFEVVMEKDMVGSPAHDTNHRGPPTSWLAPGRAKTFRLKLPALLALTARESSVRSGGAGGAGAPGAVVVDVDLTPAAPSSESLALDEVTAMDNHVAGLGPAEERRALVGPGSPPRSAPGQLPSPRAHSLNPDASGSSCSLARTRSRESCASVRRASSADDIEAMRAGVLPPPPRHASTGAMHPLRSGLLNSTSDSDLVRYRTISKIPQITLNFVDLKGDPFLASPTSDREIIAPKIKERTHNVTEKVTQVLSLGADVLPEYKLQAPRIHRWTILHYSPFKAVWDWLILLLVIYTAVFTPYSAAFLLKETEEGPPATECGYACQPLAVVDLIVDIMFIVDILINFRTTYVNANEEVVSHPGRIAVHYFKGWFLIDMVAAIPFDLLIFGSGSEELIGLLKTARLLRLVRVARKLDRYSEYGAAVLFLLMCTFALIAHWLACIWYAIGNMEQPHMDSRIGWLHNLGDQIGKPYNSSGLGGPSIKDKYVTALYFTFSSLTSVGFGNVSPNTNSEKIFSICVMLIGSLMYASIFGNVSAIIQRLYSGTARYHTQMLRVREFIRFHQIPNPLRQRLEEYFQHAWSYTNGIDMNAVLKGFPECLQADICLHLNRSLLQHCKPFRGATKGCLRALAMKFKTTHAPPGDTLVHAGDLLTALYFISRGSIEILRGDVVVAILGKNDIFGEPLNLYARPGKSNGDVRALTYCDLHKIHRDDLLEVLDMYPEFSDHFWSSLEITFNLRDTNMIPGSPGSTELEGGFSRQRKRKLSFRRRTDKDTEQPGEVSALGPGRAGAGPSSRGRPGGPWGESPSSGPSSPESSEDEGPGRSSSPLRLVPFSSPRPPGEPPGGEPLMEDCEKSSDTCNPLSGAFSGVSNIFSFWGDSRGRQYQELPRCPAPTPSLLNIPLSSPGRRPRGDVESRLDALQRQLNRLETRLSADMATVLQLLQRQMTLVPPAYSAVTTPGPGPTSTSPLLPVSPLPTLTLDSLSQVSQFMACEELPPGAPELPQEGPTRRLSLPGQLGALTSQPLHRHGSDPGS
Description: For the purpose of assessing risk of an electrocardiogram QT interval prolongation of the compound of the present invention, effects of the compound of the present invention on delayed rectifier K current (I r), which plays an important role in the ventricular repolarization process, was studied using CHO cells expressing human ether-a-go-go related gene (hERG) channel.
After a cell was retained at a membrane potential of −80 mV by whole cell patch clamp method using an automated patch clamp system (QPatch; Sophion Bioscience A/S), IKr induced by leak potential at −50 mV, and then depolarization pulse stimulation at +20 mV for 2 seconds and, further, repolarization pulse stimulation at −50 mV for 2 seconds, was recorded. After the generated current was stabilized, extracellular solution (NaCl: 145 mmol/L, KCl: 4 mmol/L, CaCl2: 2 mmol/L, MgCl2: 1 mmol/L, glucose: 10 mmol/L, HEPES (4-(2-hydroxyethyl)-1-piperazineethanesulfonic acid): 10 mmol/L, pH7.4), in which the compound of the present invention had been dissolved at an objective concentration, was applied to the cell at room temperature for 10 minutes. From the recording IKr, an absolute value of the tail peak current was measured based on the current value at the resting membrane potential using analysis software (Falster Patch; Sophion Bioscience A/S). Further, the % inhibition relative to the tail peak current before application of the compound of the present invention was calculated, and compared with the vehicle-applied group (0.1% dimethyl sulfoxide solution) to assess influence of the compound of the present invention on IKr.

[4] = Test Example 9-2: Metabolism Stability Test; assay type: in vitro ADME; conditions: human liver microsomes 0.5 mg protein/mL, 30 minutes, 37° C., 1 mmol/L NADPH
Method: Using commercially available pooled human hepatic microsomes, a compound of the present invention was reacted for a constant time, and a remaining rate was calculated by comparing a reacted sample and an unreacted sample, thereby, a degree of metabolism in liver was assessed.
A reaction was performed (oxidative reaction) at 37° C. for 0 minute or 30 minutes in the presence of 1 mmol/L NADPH in 0.2 mL of a buffer (50 mmol/L Tris-HCl pH 7.4, 150 mmol/L potassium chloride, 10 mmol/L magnesium chloride) containing 0.5 mg protein/mL of human liver microsomes. After the reaction, 50 μL of the reaction solution was added to 100 μL of a methanol/acetonitrile=1/1 (v/v), mixed and centrifuged at 3000 rpm for 15 minutes. The compound of the present invention in the supernatant was quantified by LC/MS/MS or Solid Phase Extraction (SPE)/MS, and a remaining amount of the compound of the present invention after the reaction was calculated, letting a compound amount at 0 minute reaction time to be 100%.

[5] = human TrkA 2.5 nmol/L, ATP 500 μmol/L, 90 min at room temperature, read-out: TrkA inhibitory activity IC50
[6] = human TrkA 1 nmol/L, 120 min at 37° C., read-out: TrkA inhibition IC50
[7] = human TrkA inhibition, class symbols A/B/C, read-out: IC50_nM

T1 sequence (P04629 33-796): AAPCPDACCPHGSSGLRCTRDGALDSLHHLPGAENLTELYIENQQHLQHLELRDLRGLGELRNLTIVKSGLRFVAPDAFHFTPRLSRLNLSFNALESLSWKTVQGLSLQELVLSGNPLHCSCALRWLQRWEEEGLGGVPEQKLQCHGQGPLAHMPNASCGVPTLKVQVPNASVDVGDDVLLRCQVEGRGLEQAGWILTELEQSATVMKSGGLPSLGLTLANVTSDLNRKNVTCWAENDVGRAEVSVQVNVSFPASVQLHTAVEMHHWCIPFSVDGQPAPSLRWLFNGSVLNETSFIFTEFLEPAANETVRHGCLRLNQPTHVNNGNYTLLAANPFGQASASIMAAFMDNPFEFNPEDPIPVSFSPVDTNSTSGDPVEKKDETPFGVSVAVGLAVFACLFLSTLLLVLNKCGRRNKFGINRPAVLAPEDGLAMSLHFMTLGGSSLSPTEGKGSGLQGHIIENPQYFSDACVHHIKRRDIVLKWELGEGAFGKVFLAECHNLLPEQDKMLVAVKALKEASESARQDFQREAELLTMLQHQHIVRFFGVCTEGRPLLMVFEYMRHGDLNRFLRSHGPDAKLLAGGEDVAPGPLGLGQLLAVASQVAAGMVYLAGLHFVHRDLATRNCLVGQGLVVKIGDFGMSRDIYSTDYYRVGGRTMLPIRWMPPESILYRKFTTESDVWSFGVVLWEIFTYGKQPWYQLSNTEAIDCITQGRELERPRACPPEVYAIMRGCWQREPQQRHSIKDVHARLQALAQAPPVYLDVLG

Structure (SMILES)	IC50 (human TrkA [1]; [5])	IC50 (human TrkA [2]; [6])	also measured
Cc1c(-c2cnn(C)c2)nn(-c2ccccc2)c1NC(=O)N[C@@H]1CN(Cc2ccco2)C[C@H]1c1ccc(F)c(F)c1 [Compound I-86]	1.1 nM	1.8 nM	
COCCN1C[C@@H](OC(=O)Nc2c(C)c(-c3cnn(C)c3)nn2-c2ccccc2)[C@H](c2ccc(F)c(F)c2)C1 (racemic) [Compound I-1]	83 nM	120 nM	
COCCC1C[C@@H](NC(=O)Nc2c(C)c(-c3cnn(C)c3)nn2-c2ccccc2)[C@H](c2ccc(F)c(F)c2)N1 (stereo partly drawn) [Compound I-91]	7.8 nM	37 nM	
COCC[C@@H]1C[C@@H](NC(=O)Nc2c(C)c(-c3cnn(C)c3)nn2-c2ccccc2)[C@H](c2ccnc(F)c2)C1 [Compound I-262]		4.8 nM	% inhibition of IKr (hERG tail peak current) [3]: 20.1%
COCCN1C[C@@H](NC(=O)Nc2c(C)c(-c3cnn(C)c3)nn2-c2ccccc2)[C@H](c2ccc3c(c2)NC(=O)CO3)C1 (racemic) [Compound I-136]			IC50 (human TrkA [1]; [7]): 100 to 1000 nM; remaining amount of compound after reaction [4]: 104%
COCCN1C[C@@H](NC(=O)Nc2c(C)c(-c3cnn(C)c3)nn2-c2ccccc2)[C@H](c2ccc3c(c2)OCO3)C1 (racemic) [Compound I-94]	22 nM	210 nM	
C=C1C[C@@H](NC(=O)Nc2c(C)c(-c3cnn(C)c3)nn2-c2ccccc2)[C@H](c2ccccc2)C1 (racemic) [Compound I-29]			IC50 (human TrkA [1]; [7]): < 100 nM; % inhibition of IKr (hERG tail peak current) [3]: 21.2%
Cc1c(-c2cnn(C)c2)nn(-c2ccccc2)c1NC(=O)N[C@@H]1CN(CCOCC(F)(F)F)C[C@H]1c1ccc(F)c(F)c1 [Compound I-22]	35 nM	170 nM	
COCCC1C[C@@H](NC(=O)Nc2c(C)c(-c3cnn(C)c3)nn2-c2ccccc2)[C@H](c2ccc(O)c(O)c2)C1 (stereo partly drawn) [Compound I-221]			% inhibition of IKr (hERG tail peak current) [3]: 13.2%; IC50 (human TrkA [2]; [7]): < 100 nM
COCC[C@@H]1C[C@@H](NC(=O)Nc2c(C)c(-c3cnc(C)nc3)nn2-c2ccccc2)[C@H](c2ccc(F)c(F)c2)N1C [Compound I-255]		1.1 nM	% inhibition of IKr (hERG tail peak current) [3]: 10.2%
COCC(=O)N1C[C@@H](NC(=O)Nc2c(C)c(-c3cnn(C)c3)nn2-c2ccccc2)[C@H](c2ccc(F)c(F)c2)C1 [Compound I-026]			% inhibition of IKr (hERG tail peak current) [3]: 3.3%
COCC[N+]1([O-])C[C@@H](NC(=O)Nc2c(C)c(-c3cnn(C)c3)nn2-c2ccccc2)[C@H](c2ccc(F)c(F)c2)C1 (stereo partly drawn) [Compound I-3]	65 nM	50 nM	% inhibition of IKr (hERG tail peak current) [3]: 20.4%
COCCC1C[C@@H](NC(=O)Nc2c(C)c(-c3cnn(C)c3)nn2-c2ccccc2)[C@H](c2ccc(F)c(F)c2)N1C (stereo partly drawn) [Compound I-87]	1.8 nM	5.4 nM	
CNC(=O)C(COC)N1C[C@@H](NC(=O)Nc2c(C)c(-c3cnn(C)c3)nn2-c2ccccc2)[C@H](c2ccc(F)c(F)c2)C1 (stereo partly drawn) [Compound I-109]	95 nM	220 nM	
CC=C1C[C@@H](NC(=O)Nc2c(C)c(-c3cnn(C)c3)nn2-c2ccccc2)[C@H](c2ccccc2)C1 [Compound I-102]	43 nM	21 nM	
COCCN1C[C@@H](NC(=O)Nc2c(C)c(-c3cnn(C)c3)nn2-c2ccccc2)[C@](C)(c2ccccc2)C1 (racemic) [Compound I-16]	121 nM	410 nM	
COCCN1C[C@@H](NC(=O)Cc2c(C)c(-c3cnn(C)c3)nn2-c2ccccc2)[C@H](c2ccc(F)c(F)c2)C1 [Compound I-8]	26 nM	71 nM	
COCC[C@@H]1C[C@@H](NC(=O)Nc2c(C)c(-c3cnn(C)c3)nn2-c2ccccc2)[C@H](c2ccc(F)c(F)c2)N1C [Compound I-214]			% inhibition of IKr (hERG tail peak current) [3]: 20.2%; IC50 (human TrkA [2]; [7]): < 100 nM
COCC[C@@H]1C[C@@H](NC(=O)Nc2c(C)c(-c3cnn(C)c3)nn2-c2ccccc2)[C@H](c2ccccc2)C1 [Compound I-084]			% inhibition of IKr (hERG tail peak current) [3]: 10.0%
COCCN1C[C@@H](NC(=O)Nc2c(C)c(-c3cnn(C)c3)nn2-c2ccccc2)[C@H](c2cccc(O)c2)C1 (racemic) [Compound I-96]	29 nM	160 nM	remaining amount of compound after reaction [4]: 90%
COCCN1C[C@@H](NC(=O)Nc2c(C)c(-c3cnn(C)c3)nn2-c2ccccc2)[C@H](c2ccc3ncsc3c2)C1 (racemic) [Compound I-107]			IC50 (human TrkA [1]; [7]): < 100 nM; remaining amount of compound after reaction [4]: 92%
COCC[C@@H]1C[C@@H](NC(=O)Nc2c(C)c(-c3ccnc(C)c3)nn2-c2ccccc2)[C@H](c2ccc(F)c(F)c2)N1C [Compound I-235]			IC50 (human TrkA [2]; [7]): < 100 nM
COCC[C@@H]1C[C@@H](NC(=O)Nc2c(C)c(-c3cnc(C)nc3)nn2-c2ccccc2)[C@H](c2ccccc2)C1 [Compound I-263]			IC50 (human TrkA [2]; [7]): < 100 nM
COCC[C@H]1C[C@@H](NC(=O)Nc2c(C)c(-c3cnn(C)c3)nn2-c2ccccc2)[C@H](c2ccccc2)N1C [Compound I-246]			IC50 (human TrkA [2]; [7]): < 100 nM
COCCC1C[C@@H](NC(=O)Nc2cc(-c3ccccc3)nn2C)[C@H](c2ccccc2)N1 (stereo partly drawn) [Compound I-216]			IC50 (human TrkA [2]; [7]): 100 to 1000 nM
COCCC1C[C@@H](NC(=O)Nc2cc(-c3ccc(C(=O)O)cc3)nn2C)[C@H](c2ccccc2)C1 (stereo partly drawn) [Compound I-199]			IC50 (human TrkA [2]; [7]): > 1000 nM
COCCN1C[C@@H](NC(=O)Nc2c(C)c(-c3cnn(C)c3)nn2-c2ccccc2)[C@H](c2ccc(F)c(F)c2)C1 [Compound I-250]			IC50 (human TrkA [2]; [7]): < 100 nM
COCC[C@@H]1C[C@@H](NC(=O)Nc2c(C)c(-c3cnn(C)c3)nn2-c2ccccc2)[C@H](c2ccccc2)C1 [Compound I-84]	0.72 nM	1.5 nM	
COCC[C@@H]1C[C@@H](NC(=O)Nc2c(C)c(-c3cnc(C)nc3)nn2-c2ccccc2)[C@H](c2ccc(F)c(F)c2)C1 [Compound I-254]		0.73 nM	
